# In patent US20250368620A1, “ARNT Degrading Compounds and Uses Thereof” (Celgene Corporation, priority 2024, published 2025):
# Target: T1, ARNT (Homo sapiens, UniProt P27540)
# T1 construct: an sgRNA targeting the C-terminus of the ARNT gene near the stop codon; endogenous in cells; host or cells: HEK293 ARNT-HiBiT knock-in, homozygous clone
# Assay: ARNT degradation in a HiBiT system (HEK293 ARNT-HiBiT Knock-In cell line)
# Assay type: cell-based
# Settings: half-maximal degradation concentration; HEK293 ARNT-HiBiT KI cells, 4h of treatment, luminescence
# Experimental: Compounds of Formula (I) were tested for ARNT degradation in a HiBiT system. A HEK293 ARNT-HiBiT Knock-In cell line was generated using CRISPR/Cas9 technology. Briefly, HEK293 cells were electroporated with the Neon system with an sgRNA targeting the C-terminus of the ARNT gene near the stop codon ([…] (SEQ ID NO: 1); chr 1: 150,812,014-150,812,034) and the HiBiT donor DNA template (80 nucleotides homology arms upstream and downstream of the insert site, with a GSGS (SEQ ID NO: 2) linker). A homozygous clone was selected after Sanger sequencing, and genetic edition was further validated using Nano-Glo HiBiT blotting system. HEK293 ARNT-HiBiT KI cells were cultured in DMEM+10% FBS at 37° C. and 5% CO2. For the assay, cells were seeded at 10,000 cells/well in white 384 plates (Corning #3570) in 22.5 μl of culture medium without phenol red. Test compounds were spotted in 384-well plates by an acoustic dispenser (10 concentrations, semi-log dilution, in 100% DMSO). Before treatment, compounds were diluted 1:100 or 1:1,000 in culture medium without phenol red, and cells were treated with 2.5 μl of diluted compounds 18h after seeding (final top concentration: 3 or 0.3 μM). After 4h of treatment, plates were equilibrated at room temperature for 30 min, and 25 μl of NANO-GLO® HiBiT Lytic reagent were added per well. Luminescence was measured on a plate reader 15 min after incubation with the detection reagent. Data were analyzed using the Genedata Screener Software version 19, and normalization was performed using the DMSO treated wells as Neutral Control and medium only (without cells) wells as Scale Reference. For curve fitting, the smart fit condensing method with a 4-parameters Hill model was used and the half-maximal degradation concentration (DC50) was calculated.
# T1 sequence (P27540 whole entry): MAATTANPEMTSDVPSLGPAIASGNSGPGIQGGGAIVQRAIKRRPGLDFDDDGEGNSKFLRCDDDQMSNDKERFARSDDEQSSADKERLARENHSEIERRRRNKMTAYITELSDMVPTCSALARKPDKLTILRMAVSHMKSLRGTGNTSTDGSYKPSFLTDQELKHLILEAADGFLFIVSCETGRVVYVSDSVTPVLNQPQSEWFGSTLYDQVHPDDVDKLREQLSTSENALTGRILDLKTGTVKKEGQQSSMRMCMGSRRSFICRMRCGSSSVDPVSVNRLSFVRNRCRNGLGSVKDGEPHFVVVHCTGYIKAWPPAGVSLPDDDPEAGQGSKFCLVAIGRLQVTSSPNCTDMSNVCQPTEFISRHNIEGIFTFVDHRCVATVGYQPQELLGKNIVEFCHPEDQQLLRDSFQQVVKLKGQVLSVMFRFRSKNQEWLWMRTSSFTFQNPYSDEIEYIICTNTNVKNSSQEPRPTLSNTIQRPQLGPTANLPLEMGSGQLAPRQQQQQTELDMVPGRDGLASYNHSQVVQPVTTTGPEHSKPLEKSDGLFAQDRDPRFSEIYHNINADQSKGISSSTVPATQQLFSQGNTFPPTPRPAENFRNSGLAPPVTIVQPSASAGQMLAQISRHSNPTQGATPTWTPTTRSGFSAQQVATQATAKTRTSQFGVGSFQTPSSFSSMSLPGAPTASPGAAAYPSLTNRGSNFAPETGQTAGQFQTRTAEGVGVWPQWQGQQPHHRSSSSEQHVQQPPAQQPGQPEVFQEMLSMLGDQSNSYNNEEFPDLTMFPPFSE
row,DC50 [nM],SMILES
1,1.2,"Cc1c(C2CC2)ccc2c1CN(C(=O)c1ccc3c(c1)[C@@H](C)N([C@H]1CCC(=O)NC1=O)C3=O)[C@H]2C [Compound 18, (S)-3-((R)-5-((S)-5-cyclopropyl-1,4-dimethylisoindoline-2-carbonyl)-3-methyl-1-oxoisoindolin-2-yl)piperidine-2,6-dione]"
2,3.3,"COc1c(C(=O)N2Cc3cc(C(F)(F)F)ccc3[C@@H]2C)ccc2c1[C@@H](C)N([C@H]1CCC(=O)NC1=O)C2=O [Compound 35, (S)-3-((R)-4-methoxy-3-methyl-5-((S)-1-methyl-5-(trifluoromethyl)isoindoline-2-carbonyl)-1-oxoisoindolin-2-yl)piperidine-2,6-dione]"
3,1.3,"C[C@@H]1c2cc(C(=O)N3Cc4cc(F)c(F)cc4[C@@H]3C)ccc2C(=O)N1[C@H]1CCC(=O)NC1=O [Compound 21, (S)-3-((R)-5-((S)-5,6-difluoro-1-methylisoindoline-2-carbonyl)-3-methyl-1-oxoisoindolin-2-yl)piperidine-2,6-dione]"
4,3,"COc1c(C(=O)N2Cc3c(ccc(Cl)c3F)[C@@H]2C)ccc2c1[C@@H](C)N([C@H]1CCC(=O)NC1=O)C2=O [Compound 33, (S)-3-((R)-5-((S)-5-chloro-4-fluoro-1-methylisoindoline-2-carbonyl)-4-methoxy-3-methyl-1-oxoisoindolin-2-yl)piperidine-2,6-dione]"
5,1.7,"COc1ccc2c(c1)CN(C(=O)c1ccc3c(c1)[C@@H](C)N([C@H]1CCC(=O)NC1=O)C3=O)[C@H]2CN(C)C [Compound 28, (S)-3-((R)-5-((R)-1-((dimethylamino)methyl)-5-methoxyisoindoline-2-carbonyl)-3-methyl-1-oxoisoindolin-2-yl)piperidine-2,6-dione]"
6,3.1,"C[C@@H]1c2cc(C(=O)N3Cc4c(ccc(C(F)(F)F)c4Cl)[C@@H]3C)ccc2C(=O)N1[C@H]1CCC(=O)NC1=O [Compound 34, (S)-3-((R)-5-((S)-4-chloro-1-methyl-5-(trifluoromethyl)isoindoline-2-carbonyl)-3-methyl-1-oxoisoindolin-2-yl)piperidine-2,6-dione]"
7,1.3,"CCOc1ccc2c(c1C)CN(C(=O)c1ccc3c(c1)[C@@H](C)N([C@H]1CCC(=O)NC1=O)C3=O)[C@H]2C [Compound 23, (S)-3-((R)-5-((S)-5-ethoxy-1,4-dimethylisoindoline-2-carbonyl)-3-methyl-1-oxoisoindolin-2-yl)piperidine-2,6-dione]"
8,1.7,"Cc1ccc2c(c1F)CN(C(=O)c1ccc3c(c1)[C@@H](C)N([C@H]1CCC(=O)NC1=O)C3=O)[C@H]2C [Compound 26, (S)-3-((R)-5-((S)-4-fluoro-1,5-dimethylisoindoline-2-carbonyl)-3-methyl-1-oxoisoindolin-2-yl)piperidine-2,6-dione]"
9,1.3,"C[C@@H]1c2cc(C(=O)N3Cc4cc(C(F)(F)F)ccc4[C@@H]3C)c(F)cc2C(=O)N1[C@H]1CCC(=O)NC1=O [Compound 20, (S)-3-((R)-5-fluoro-1-methyl-6-((S)-1-methyl-5-(trifluoromethyl)isoindoline-2-carbonyl)-3-oxoisoindolin-2-yl)piperidine-2,6-dione]"
10,2.3,"C[C@@H]1c2cc(C(=O)N3Cc4c(ccc(C(F)(F)F)c4F)[C@@H]3C)ccc2C(=O)N1[C@H]1CCC(=O)NC1=O [Compound 32, (S)-3-((R)-5-((S)-4-fluoro-1-methyl-5-(trifluoromethyl)isoindoline-2-carbonyl)-3-methyl-1-oxoisoindolin-2-yl)piperidine-2,6-dione]"
11,0.33,"C[C@@H]1c2cc(C(=O)N3Cc4c(ccc(Cl)c4F)[C@@H]3CN(C)C)ccc2C(=O)N1[C@H]1CCC(=O)NC1=O [Compound 2, (S)-3-((R)-5-((R)-5-chloro-1-((dimethylamino)methyl)-4-fluoroisoindoline-2-carbonyl)-3-methyl-1-oxoisoindolin-2-yl)piperidine-2,6-dione]"
12,2.2,"C[C@@H]1c2cc(C(=O)N3Cc4cc(C(F)(F)F)ccc4[C@@H]3C)ccc2C(=O)N1[C@H]1CCC(=O)NC1=O [Compound 31, (S)-3-((R)-3-methyl-5-((S)-1-methyl-5-(trifluoromethyl)isoindoline-2-carbonyl)-1-oxoisoindolin-2-yl)piperidine-2,6-dione]"
13,1.2,"C[C@@H]1c2cc(C(=O)N3Cc4c(ccc(Br)c4F)[C@@H]3C)ccc2C(=O)N1[C@H]1CCC(=O)NC1=O [Compound 19, (S)-3-((R)-5-((S)-5-bromo-4-fluoro-1-methylisoindoline-2-carbonyl)-3-methyl-1-oxoisoindolin-2-yl)piperidine-2,6-dione]"
14,0.42,"C[C@@H]1c2cc(C(=O)N3Cc4c(ccc(Cl)c4F)[C@@H]3CN3CCCC3)ccc2C(=O)N1[C@H]1CCC(=O)NC1=O [Compound 4, (S)-3-((R)-5-((R)-5-chloro-4-fluoro-1-(pyrrolidin-1-ylmethyl)isoindoline-2-carbonyl)-3-methyl-1-oxoisoindolin-2-yl)piperidine-2,6-dione]"
15,1,"C[C@H]1c2ccc(C(F)(F)F)cc2CN1C(=O)c1ccc2c3c(cccc13)N(C1CCC(=O)NC1=O)C2=O (stereo partly drawn) [Compound 16, 3-(5-((S)-1-methyl-5-(trifluoromethyl)isoindoline-2-carbonyl)-2-oxobenzo[cd]indol-1(2H)-yl)piperidine-2,6-dione]"
16,0.42,"C[C@H]1c2ccc(Cl)c(F)c2CN1C(=O)c1ccc2c3c(cccc13)N(C1CCC(=O)NC1=O)C2=O (stereo partly drawn) [Compound 5, 3-(5-((S)-5-chloro-4-fluoro-1-methylisoindoline-2-carbonyl)-2-oxobenzo[cd]indol-1(2H)-yl)piperidine-2,6-dione]"
17,0.29,"C[C@@H]1c2cc(C(=O)N3Cc4ccccc4[C@@H]3CN(C)C)ccc2C(=O)N1[C@H]1CCC(=O)NC1=O [Compound 1, (S)-3-((R)-5-((R)-1-((dimethylamino)methyl)isoin-doline-2-carbonyl)-3-methyl-1-oxoisoindolin-2-yl)piperidine-2,6-dione]"
18,0.95,"COc1ccc2c(c1Br)CN(C(=O)c1ccc3c(c1)[C@@H](C)N([C@H]1CCC(=O)NC1=O)C3=O)[C@H]2CN(C)C [Compound 14, (S)-3-((R)-5-((R)-4-bromo-1-((dimethylamino)methyl)-5-methoxyisoindoline-2-carbonyl)-3-methyl-1-oxoisoindolin-2-yl)piperidine-2,6-dione]"
19,1.8,"C[C@@H]1c2c(ccc(C(=O)N3Cc4ccccc4[C@@H]3CN(C)C)c2F)C(=O)N1[C@H]1CCC(=O)NC1=O [Compound 29, (S)-3-((R)-5-((R)-1-((dimethylamino)methyl)isoin-doline-2-carbonyl)-4-fluoro-3-methyl-1-oxoisoindolin-2-yl)piperidine-2,6-dione]"
20,1.6,"Cc1ccc2c(c1F)CN(C(=O)c1cc3c(cc1F)C(=O)N([C@H]1CCC(=O)NC1=O)[C@@H]3C)[C@H]2C [Compound 25, (S)-3-((R)-5-fluoro-6-((S)-4-fluoro-1,5-dimethylisoindoline-2-carbonyl)-1-methyl-3-oxoisoindolin-2-yl)piperidine-2,6-dione]"
21,0.73,"C[C@@H]1c2cc(C(=O)N3Cc4c(ccc(Cl)c4F)[C@@H]3CN3CCC(F)CC3)ccc2C(=O)N1[C@H]1CCC(=O)NC1=O [Compound 12, (S)-3-((R)-5-((R)-5-chloro-4-fluoro-1-((4-fluoropiperidin-1-yl)methyl)isoindoline-2-carbonyl)-3-methyl-1-oxoisoindolin-2-yl)piperidine-2,6-dione]"
22,0.71,"C[C@@H]1c2cc(C(=O)N3Cc4c(ccc(Cl)c4F)[C@@H]3CN3CC4CCC3C4)ccc2C(=O)N1[C@H]1CCC(=O)NC1=O (stereo partly drawn) [Compound 10, (3S)-3-((3R)-5-((1R)-1-((2-azabicyclo[2.2.1]heptan-2-yl)methyl)-5-chloro-4-fluoroisoindoline-2-carbonyl)-3-methyl-1-oxoisoindolin-2-yl)piperidine-2,6-dione]"
23,1.2,"C[C@@H]1c2cc(C(=O)N3Cc4c(ccc(Cl)c4F)[C@@H]3CN3CCC3)ccc2C(=O)N1[C@H]1CCC(=O)NC1=O [Compound 17, (S)-3-((R)-5-((R)-1-(azetidin-1-ylmethyl)-5-chloro-4-fluoroisoindoline-2-carbonyl)-3-methyl-1-oxoisoindolin-2-yl)piperidine-2,6-dione]"
24,0.48,"C[C@@H]1c2cc(C(=O)N3Cc4c(ccc(Cl)c4F)[C@@H]3CN3CC4CC3C4)ccc2C(=O)N1[C@H]1CCC(=O)NC1=O [Compound 7, (S)-3-((R)-5-((R)-1-((2-azabicyclo[2.1.1]hexan-2-yl)methyl)-5-chloro-4-fluoroisoindoline-2-carbonyl)-3-methyl-1-oxoisoindolin-2-yl)piperidine-2,6-dione]"
